According to US7173024B2, “Compounds having prolyl oligopeptidase inhibitory activity, methods for their preparation and their use” (Orion Corporation, priority 2001, dated 2007):

Target: T1, pig brain prolyl oligopeptidase (Sus scrofa, UniProt P23687)
T1 construct: The brains were homogenized with a glass-teflon homogenisator; from tissue; host or cells: pig brain (excluding cerebellum and most of the brain stem), 10000 g supernatant of the homogenate
Assay: Inhibition of prolyl oligopeptidase activity of pig brain (Suc-Gly-Pro-AMC, fluorometric)
Format: biochemical
Conditions: pig brain homogenate supernatant, 30° C., pH 7.0
Protocol: The whole pig brains, excluding cerebellum and most of the brain stem, of three pigs were placed in liquid nitrogen within 30 min from killing and stored at −80° C. until homogenized. The brains were homogenized with a glass-teflon homogenisator in 3 volumes (w/v) of ice-cold 0.1 M sodium-potassium phosphate buffer (pH 7.0) and the homogenates were centrifuged for 20 min at 4° C. at 10000 g. The supernatants were collected, pooled and stored in small aliquots at −80° C. until used. The supernatant was thawn in ice just before activity assay and diluted in a ratio 1:2 with homogenisation buffer (=enzyme preparation).
In the microplate assay procedure, 10 μl of enzyme preparation was preincubated with 460 μl of 0.1 M sodium-potassium phosphate buffer (pH 7.0) and 5 μl of a solution of novel compound dissolved in DMSO and diluted with 0.1 M sodium-potassium phosphate buffer at 30° C. for 30 min. The controls contained 10 μl enzyme preparation and 465 μl of 0.1 M sodium-potassium phosphate buffer (pH 7.0). The reaction was initiated by adding 25 μl of 4 mM Suc-Gly-Pro-AMC (AMC: 7-amido-4-methylcoumarin) dissolved in 0.1 M sodium-potassium phosphate buffer (pH 7.0), and the mixture was incubated at 30° C. for 60 min. The reaction was terminated by adding 500 μl of 1 M sodium acetate buffer (pH 4.2).
Formation of 7-amido-4-methylcoumarin was determined fluorometrically with microplate fluorescence reader (excitation at 360 nm and emission at 460 nm). The final concentration of novel compounds in the assay mixture varied from 10^−12 M to 10^−4 M.
The prolyl oligopeptidase activity was calculated with the following formula in the presence of various concentrations of novel compounds. To reveal the inhibitory potency of the novel compound, activities (% of control) were plotted against the log concentration of the compound, and the IC50 value was determined by non-linear regression utilizing GraphPad Prism software.
Activity (% of control)=a/b×100, where • a=flourescence intensity in the presence of a novel compound • […] a novel compound (control)

T1 sequence (P23687 whole entry): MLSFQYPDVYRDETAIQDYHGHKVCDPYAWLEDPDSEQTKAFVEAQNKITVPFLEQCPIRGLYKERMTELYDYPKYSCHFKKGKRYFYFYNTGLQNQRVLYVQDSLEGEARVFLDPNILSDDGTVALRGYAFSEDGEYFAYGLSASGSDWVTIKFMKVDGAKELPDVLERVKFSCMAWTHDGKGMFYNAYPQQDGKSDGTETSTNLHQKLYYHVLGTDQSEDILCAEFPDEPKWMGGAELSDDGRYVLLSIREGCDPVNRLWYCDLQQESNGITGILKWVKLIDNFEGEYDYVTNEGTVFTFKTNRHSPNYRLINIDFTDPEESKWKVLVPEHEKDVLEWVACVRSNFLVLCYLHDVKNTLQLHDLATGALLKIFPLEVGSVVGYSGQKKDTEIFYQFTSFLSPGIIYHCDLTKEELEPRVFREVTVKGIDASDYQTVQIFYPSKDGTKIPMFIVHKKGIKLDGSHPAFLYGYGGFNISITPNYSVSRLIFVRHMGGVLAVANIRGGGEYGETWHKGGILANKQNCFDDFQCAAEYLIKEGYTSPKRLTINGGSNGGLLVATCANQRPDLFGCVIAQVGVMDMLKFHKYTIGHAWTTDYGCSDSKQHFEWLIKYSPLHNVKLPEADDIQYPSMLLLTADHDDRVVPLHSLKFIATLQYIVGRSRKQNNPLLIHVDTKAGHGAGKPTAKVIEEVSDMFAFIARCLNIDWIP

Row | Compound | IC50 [nM]
1 | O=C([C@@H]1CCCN1C(=O)c1cccc(C(=O)N2CCC[C@H]2C(=O)N2CCCC2)c1)N1CCCC1 [Example 11, Isophthalic acid di-(L-prolyl-pyrrolidine)amide] | 26
2 | CSCC[C@H](NC(=O)c1cccc(C(=O)N[C@@H](CCSC)C(=O)N2CCCC2)c1)C(=O)N1CCCC1 [Example 47, Isophthalic acid di-(L-methionyl-pyrrolidine)amide] | 110
3 | N#C[C@@H]1CCCN1C(=O)[C@@H]1CCCN1C(=O)CCC(=O)N1CCCCCC1 [Example 18, Succinic acid hexamethyleneimine L-prolyl-2(S)-cyanopyrrolidine amide] | 0.8
4 | O=C(CO)[C@@H]1CCCN1C(=O)[C@@H]1CCCN1C(=O)c1cccc(C(=O)N2CCC[C@H]2C(=O)N2CCCC2)c1 [Example 22, Isophthalic acid L-prolyl-2(S)-(hydroxyacetyl)pyrrolidine L-prolyl-pyrrolidine amide] | 0.4
5 | C[C@H](NC(=O)c1cccc(C(=O)N[C@@H](C)C(=O)N2CCCC2)c1)C(=O)N1CCCC1 [Example 46, Isophthalic acid di-(L-alanyl-pyrrolidine)amide] | 87
6 | O=C(NC(Cc1ccccc1)C(=O)N1CCCC1)c1cccc(C(=O)NC(Cc2ccccc2)C(=O)N2CCCC2)c1 [Example 50, Isophtalic acid di-(L-phenylalanyl-pyrrolidine)amide] | 79
7 | N#C[C@@H]1CCCN1C(=O)[C@@H]1CCCN1C(=O)CCC(=O)N1CCC[C@H]1C(=O)N1CCC[C@H]1C#N [Example 21, Succinic acid di-(L-prolyl-2(S)-cyanopyrrolidine)amide] | 0.8
8 | O=C(C1CCCC1)[C@@H]1CCCN1C(=O)c1cccc(C(=O)N2CCC[C@H]2C(=O)C2CCCC2)c1 [Example 41, Isophthalic acid di-(2(S)-(cyclopentanecarbonyl)pyrrolidine)amide] | 78
9 | O=C(CCCC(=O)N1CCC[C@H]1C(=O)N1CCCC1)N1CCCCCC1 [Example 48, Glutaric acid hexamethyleneimine L-prolyl-pyrrolidine amide] | 28
